Patent US11590139B2, “Substituted aminopurine compounds, compositions thereof, and methods of treatment therewith” (Signal Pharmaceuticals, LLC, priority 2014, dated 2023)

Tested on: Lox-IMVI melanoma cell line
Experiment: Lox-IMVI anti-proliferative assay (growth inhibition, Cell Titer-Glo)
Type: cell-based, human
Conditions: Homo sapiens; Lox-IMVI anti-proliferative assay, IC50 activity level; read-out: Activity
Outline: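 IC50 values reflect the concentration giving 50% of DMSO-control luminescence after 72 h of treatment, fitted with a four-parameter logistic model. Cells were cultured in RPMI + 10% FBS with compound from 0.5 nM to 10 μM.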

Structure (SMILES) | IC50 [nM]
C[C@@H](CO)Nc1ncc2nc(Nc3c(Cl)cc(C(F)(F)F)cc3Cl)n([C@H]3CC[C@@](C)(C(N)=O)CC3)c2n1 [Example 554, (1R,4s)-4-(8-(2,6-dichloro-4-(trifluoromethyl)phenylamino)-2-((S)-1-hydroxypropan-2-ylamino)-9H-purin-9-yl)-1-methylcyclohexanecarboxamide] | 500 to 1000
C[C@]1(C(N)=O)CC[C@@H](n2c(Nc3c(F)cc(Cl)cc3F)nc3cnc(NC4CCCC4)nc32)CC1 [Example 559, (1s,4s)-4-(8-(4-chloro-2,6-difluorophenylamino)-2-(cyclopentylamino)-9H-purin-9-yl)-1-methylcyclohexanecarboxamide] | 250 to 500
C[C@]1(C(N)=O)CC[C@@H](n2c(Nc3c(Cl)cc(F)cc3Cl)nc3cnc(NC4CCCC4)nc32)CC1 [Example 560, (1s,4s)-4-(2-(cyclopentylamino)-8-(2,6-dichloro-4-fluorophenylamino)-9H-purin-9-yl)-1-methylcyclohexanecarboxamide] | 250 to 500
C[C@]1(C(N)=O)CC[C@@H](n2c(Nc3c(Cl)cc(C(F)(F)F)cc3Cl)nc3cnc(NC4CCCC4)nc32)CC1 [Example 562, (1s,4s)-4-(2-(cyclopentylamino)-8-(2,6-dichloro-4-(trifluoromethyl)phenylamino)-9H-purin-9-yl)-1-methylcyclohexanecarboxamide] | > 1000
C[C@]1(C(N)=O)CC[C@@H](n2c(Nc3c(F)cc(F)cc3F)nc3cnc(N[C@@H]4CCC[C@H](O)C4)nc32)CC1 [Example 563, (1S,4s)-4-(2-((1R,3S)-3-hydroxycyclohexylamino)-8-(2,4,6-trifluorophenylamino)-9H-purin-9-yl)-1-methylcyclohexanecarboxamide] | > 1000
C[C@]1(C(N)=O)CC[C@@H](n2c(Nc3c(F)cc(Cl)cc3Cl)nc3cnc(N[C@@H]4CCC[C@H](O)C4)nc32)CC1 [Example 564, (1S,4s)-4-(8-(2,4-dichloro-6-fluorophenylamino)-2-((1R,3S)-3-hydroxycyclohexylamino)-9H-purin-9-yl)-1-methylcyclohexanecarboxamide] | < 250
C[C@]1(C(N)=O)CC[C@@H](n2c(Nc3c(Cl)cc(Cl)cc3Cl)nc3cnc(N[C@@H]4CCC[C@H](O)C4)nc32)CC1 [Example 565, (1S,4s)-4-(2-((1R,3S)-3-hydroxycyclohexylamino)-8-(2,4,6-trichlorophenylamino)-9H-purin-9-yl)-1-methylcyclohexanecarboxamide] | < 250
C[C@]1(C(N)=O)CC[C@@H](n2c(Nc3c(F)cc(Cl)cc3F)nc3cnc(N[C@@H]4CCC[C@H](O)C4)nc32)CC1 [Example 566, (1S,4s)-4-(8-(4-chloro-2,6-difluorophenylamino)-2-((1R,3S)-3-hydroxycyclohexylamino)-9H-purin-9-yl)-1-methylcyclohexanecarboxamide] | 250 to 500
C[C@]1(C(N)=O)CC[C@@H](n2c(Nc3c(Cl)cc(F)cc3Cl)nc3cnc(N[C@@H]4CCC[C@H](O)C4)nc32)CC1 [Example 567, (1S,4s)-4-(8-(2,6-dichloro-4-fluorophenylamino)-2-((1R,3S)-3-hydroxycyclohexylamino)-9H-purin-9-yl)-1-methylcyclohexanecarboxamide] | 500 to 1000
C[C@]1(C(N)=O)CC[C@@H](n2c(Nc3c(F)cc(C#N)cc3Cl)nc3cnc(N[C@@H]4CCC[C@H](O)C4)nc32)CC1 [Example 568, (1S,4s)-4-(8-(2-chloro-4-cyano-6-fluorophenylamino)-2-((1R,3S)-3-hydroxycyclohexylamino)-9H-purin-9-yl)-1-methylcyclohexanecarboxamide] | 250 to 500
C[C@]1(C(N)=O)CC[C@@H](n2c(Nc3c(Cl)cc(C#N)cc3Cl)nc3cnc(N[C@@H]4CCC[C@H](O)C4)nc32)CC1 [Example 569, (1S,4s)-4-(8-(2,6-dichloro-4-cyanophenylamino)-2-((1R,3S)-3-hydroxycyclohexylamino)-9H-purin-9-yl)-1-methylcyclohexanecarboxamide] | < 250
NC(=O)[C@H]1CC[C@@H](n2c(Nc3c(Cl)cc(C(F)(F)F)cc3Cl)nc3cnc(NC4CC5(COC5)C4)nc32)CC1 [Example 570, (1s,4s)-4-(2-(2-oxaspiro[3.3]heptan-6-ylamino)-8-(2,6-dichloro-4-(trifluoromethyl)phenylamino)-9H-purin-9-yl)cyclohexanecarboxamide] | > 1000
N#Cc1cc(Cl)c(Nc2nc3cnc(NC4CC5(COC5)C4)nc3n2[C@H]2CC[C@@H](C(N)=O)CC2)c(Cl)c1 [Example 571, (1s,4s)-4-(2-(2-oxaspiro[3.3]heptan-6-ylamino)-8-(2,6-dichloro-4-cyanophenylamino)-9H-purin-9-yl)cyclohexanecarboxamide] | 250 to 500
N#Cc1cc(F)c(Nc2nc3cnc(NC4CC5(COC5)C4)nc3n2[C@H]2CC[C@@H](C(N)=O)CC2)c(Cl)c1 [Example 572, (1s,4s)-4-(2-(2-oxaspiro[3.3]heptan-6-ylamino)-8-(2-chloro-4-cyano-6-fluorophenylamino)-9H-purin-9-yl)cyclohexanecarboxamide] | 500 to 1000

Continued, values first:

IC50 [nM] | Structure (SMILES)
< 250 | C[C@@H](CO)Nc1ncc2nc(Nc3c(F)cc(C#N)cc3Cl)n([C@H]3CC[C@@](C)(C(N)=O)CC3)c2n1 [Example 552, (1R,4s)-4-(8-(2-chloro-4-cyano-6-fluorophenylamino)-2-((S)-1-hydroxypropan-2-ylamino)-9H-purin-9-yl)-1-methylcyclohexanecarboxamide]
< 250 | C[C@@H](CO)Nc1ncc2nc(Nc3c(Cl)cc(C#N)cc3Cl)n([C@H]3CC[C@@](C)(C(N)=O)CC3)c2n1 [Example 553, (1R,4s)-4-(8-(2,6-dichloro-4-cyanophenylamino)-2-((S)-1-hydroxypropan-2-ylamino)-9H-purin-9-yl)-1-methylcyclohexanecarboxamide]
< 250 | N#Cc1cc(Cl)c(Nc2nc3cnc(NC4CCCOCC4)nc3n2[C@H]2CC[C@@H](C(N)=O)CC2)c(Cl)c1 (stereo partly drawn) [Example 555, (1s,4s)-4-(8-(2,6-dichloro-4-cyanophenylamino)-2-(oxepan-4-ylamino)-9H-purin-9-yl)cyclohexanecarboxamide]
< 250 | C[C@]1(C(N)=O)CC[C@@H](n2c(Nc3c(F)cc(F)cc3F)nc3cnc(NC4CCCC4)nc32)CC1 [Example 556, (1s,4s)-4-(2-(cyclopentylamino)-8-(2,4,6-trifluorophenylamino)-9H-purin-9-yl)-1-methylcyclohexanecarboxamide]
< 250 | C[C@]1(C(N)=O)CC[C@@H](n2c(Nc3c(F)cc(Cl)cc3Cl)nc3cnc(NC4CCCC4)nc32)CC1 [Example 557, (1s,4s)-4-(2-(cyclopentylamino)-8-(2,4-dichloro-6-fluorophenylamino)-9H-purin-9-yl)-1-methylcyclohexanecarboxamide]
< 250 | C[C@]1(C(N)=O)CC[C@@H](n2c(Nc3c(F)cc(F)cc3Cl)nc3cnc(NC4CCCC4)nc32)CC1 [Example 558, (1s,4s)-4-(8-(2-chloro-4,6-difluorophenylamino)-2-(cyclopentylamino)-9H-purin-9-yl)-1-methylcyclohexanecarboxamide]
< 250 | C[C@]1(C(N)=O)CC[C@@H](n2c(Nc3c(Cl)cc(C#N)cc3Cl)nc3cnc(NC4CCCC4)nc32)CC1 [Example 561, (1s,4s)-4-(2-(cyclopentylamino)-8-(2,6-dichloro-4-cyanophenylamino)-9H-purin-9-yl)-1-methylcyclohexanecarboxamide]
